This note sets out measurements from PubChem BioAssay AID268 (DTP/NCI, 2004).

The subject of the assay is CD2F1 mice, P1798 lymphosarcoma sc, tumor weight T/C. As to the kind of experiment: NCI In Vivo Anticancer Drug Screen. Data for tumor model P1798 Lymphosarcoma (subcutaneous) in CD2F1 (CDF1) mice. The settings on record: higher = larger tumour. On the procedure: The antitumor activity of compounds was measured in mice bearing transplantable tumors. Survival or tumor size were measured and the results are expressed as the measurement made in the treated group (T) divided by the measurement made in the vehicle treated control group (C). The tumor model used in this assay is P1798 Lymphosarcoma (subcutaneous) in CD2F1 (CDF1) mice

[1] abbreviates: endpoint: mean tumor weight, dose: 12.5 mg/kg/injection, schedule: Q01DX010 (sc), vehicle: steriod suspending solution.
Setting [2] is: endpoint: mean tumor weight, dose: 25.0 mg/kg/injection, schedule: Q01DX010 (sc), vehicle: steriod suspending solution.
Where [3] appears, read: endpoint: mean tumor weight, dose: 50.0 mg/kg/injection, schedule: Q01DX010 (sc), vehicle: steriod suspending solution.
Setting [4] is: endpoint: mean tumor weight, dose: 50.0 mg/kg/injection, schedule: Q01DX010 (ip), vehicle: saline.
Setting [5] is: endpoint: mean tumor weight, dose: 12.5 mg/kg/injection, schedule: Q01DX005 (sc), vehicle: steriod suspending solution.
The mark [6] stands for this setting: endpoint: mean tumor weight, dose: 25.0 mg/kg/injection, schedule: Q01DX005 (sc), vehicle: steriod suspending solution.
[7] abbreviates: endpoint: mean tumor weight, dose: 25.0 mg/kg/injection, schedule: Q02DX010 (sc), vehicle: steriod suspending solution.
The mark [8] stands for this setting: endpoint: mean tumor weight, dose: 50.0 mg/kg/injection, schedule: Q01DX005 (sc), vehicle: steriod suspending solution.
Setting [9] is: endpoint: mean tumor weight, dose: 50.0 mg/kg/injection, schedule: Q03DX004 (sc), vehicle: steriod suspending solution.
Setting [10] is: endpoint: mean tumor weight, dose: 100.0 mg/kg/injection, schedule: Q01DX005 (sc), vehicle: steriod suspending solution.
The mark [11] stands for this setting: endpoint: mean tumor weight, dose: 100.0 mg/kg/injection, schedule: Q02DX010 (sc), vehicle: steriod suspending solution.
The mark [12] stands for this setting: endpoint: mean tumor weight, dose: 100.0 mg/kg/injection, schedule: Q03DX004 (sc), vehicle: steriod suspending solution.

Each structure is given as a SMILES string. Values joined by “and” are separate entries in the source; they are usually repeats but may differ in a detail not shown here. Identical values can stand only once.

`CCn1cnc2c(=S)nc[nH]c21`: the T/C – broadly, the ratio of treated to control – (endpoint: mean tumor weight, dose: 62.5 mg/kg/injection, schedule: Q01DX010 (ip), vehicle: saline) is 96 % of control and 79 % of control.

`CCCSc1ncnc2nc[nH]c12`: for the setting “endpoint: mean tumor weight, dose: 125.0 mg/kg/injection, schedule: Q01DX010 (ip), vehicle: saline”, the T/C is 21 % of control.

On to `C[C@@H]1C[C@@]2(C)[C@@H](CC[C@@H]3[C@@H]2CC[C@]2(C)[C@@H](O)CC[C@@H]32)CC1=O`, for which the T/C reads like this: under setting [1], 118 % of control and 124 % of control; under setting [2], 100 % of control and 107 % of control; under setting [3], 101 % of control and 111 % of control; (endpoint: mean tumor weight, dose: 100.0 mg/kg/injection, schedule: Q01DX010 (sc), vehicle: steriod suspending solution) 109 % of control and 121 % of control.

Consider `NCC(=O)NCCCCCCNCCCCCCNC(=O)CN`, for which the T/C is 82 % of control under setting [4]; 113 % of control (endpoint: mean tumor weight, dose: 100.0 mg/kg/injection, schedule: Q01DX010 (ip), vehicle: saline); 89 % of control (endpoint: mean tumor weight, dose: 200.0 mg/kg/injection, schedule: Q01DX010 (ip), vehicle: saline); 73 % of control (endpoint: mean tumor weight, dose: 400.0 mg/kg/injection, schedule: Q01DX010 (ip), vehicle: saline).

With `CC1(C)O[C@@H]2C[C@H]3[C@@H]4CCC5=CC(=O)C=C[C@]5(C)[C@@]4(F)[C@@H](O)C[C@]3(C)[C@]2(C(=O)CO)O1`, the T/C by setting is: (endpoint: mean tumor weight, dose: 0.5 mg/kg/injection, schedule: Q01DX005 (sc), vehicle: steriod suspending solution) 56 % of control; (endpoint: mean tumor weight, dose: 1.0 mg/kg/injection, schedule: Q01DX005 (sc), vehicle: steriod suspending solution) 59 % of control; (endpoint: mean tumor weight, dose: 1.0 mg/kg/injection, schedule: Q01DX010 (sc), vehicle: steriod suspending solution) 118 % of control; (endpoint: mean tumor weight, dose: 1.0 mg/kg/injection, schedule: Q02DX010 (sc), vehicle: steriod suspending solution) 101 % of control; (endpoint: mean tumor weight, dose: 1.0 mg/kg/injection, schedule: Q03DX004 (sc), vehicle: steriod suspending solution) 71 % of control; (endpoint: mean tumor weight, dose: 2.0 mg/kg/injection, schedule: Q01DX005 (sc), vehicle: steriod suspending solution) 33 % of control. Moreover, the T/C by setting is: (endpoint: mean tumor weight, dose: 2.0 mg/kg/injection, schedule: Q01DX010 (sc), vehicle: steriod suspending solution) 39 % of control; (endpoint: mean tumor weight, dose: 2.0 mg/kg/injection, schedule: Q02DX010 (sc), vehicle: steriod suspending solution) 80 % of control; (endpoint: mean tumor weight, dose: 2.0 mg/kg/injection, schedule: Q03DX004 (sc), vehicle: steriod suspending solution) 26 % of control; (endpoint: mean tumor weight, dose: 3.75 mg/kg/injection, schedule: Q01DX010 (sc), vehicle: steriod suspending solution) 1 % of control; (endpoint: mean tumor weight, dose: 4.0 mg/kg/injection, schedule: Q01DX005 (sc), vehicle: steriod suspending solution) 16 % of control; (endpoint: mean tumor weight, dose: 4.0 mg/kg/injection, schedule: Q01DX010 (sc), vehicle: steriod suspending solution) 23 % of control. The T/C runs as follows: (endpoint: mean tumor weight, dose: 4.0 mg/kg/injection, schedule: Q02DX010 (sc), vehicle: steriod suspending solution) 113 % of control; (endpoint: mean tumor weight, dose: 4.0 mg/kg/injection, schedule: Q03DX004 (sc), vehicle: steriod suspending solution) 7 % of control.

As for `O=C1C=CC2(CCC23C=CC(=O)O3)O1` (centres undefined), the T/C (endpoint: mean tumor weight, dose: 13.0 mg/kg/injection, schedule: Q01DX011 (ip), vehicle: saline) is 74 % of control; the T/C (endpoint: mean tumor weight, dose: 20.0 mg/kg/injection, schedule: Q01DX011 (ip), vehicle: saline) is 106 % of control; the T/C (endpoint: mean tumor weight, dose: 45.0 mg/kg/injection, schedule: Q01DX011 (ip), vehicle: saline) is 108 % of control and 86 % of control; the T/C (endpoint: mean tumor weight, dose: 65.0 mg/kg/injection, schedule: Q01DX011 (ip), vehicle: saline) is 103 % of control; the T/C (endpoint: mean tumor weight, dose: 100.0 mg/kg/injection, schedule: Q01DX011 (ip), vehicle: saline) is 89 % of control.

`CC(=O)OCC(=O)[C@@]1(O)CC[C@H]2[C@@H]3CCC4=CC(=O)[C@H](C)C[C@]4(C)[C@H]3[C@@H](O)C[C@@]21C`: the T/C reads like this: (endpoint: mean tumor weight, dose: 0.78 mg/kg/injection, schedule: Q01DX Z (sc), vehicle: steriod suspending solution) 111 % of control; (endpoint: mean tumor weight, dose: 1.56 mg/kg/injection, schedule: Q01DX Z (sc), vehicle: steriod suspending solution) 101 % of control; (endpoint: mean tumor weight, dose: 3.13 mg/kg/injection, schedule: Q01DX Z (sc), vehicle: steriod suspending solution) 108 % of control; (endpoint: mean tumor weight, dose: 6.25 mg/kg/injection, schedule: Q01DX Z (sc), vehicle: steriod suspending solution) 101 % of control and 88 % of control; under setting [5], 61 % of control; under setting [1], 33 % of control and 50 % of control. In addition, the T/C runs as follows: (endpoint: mean tumor weight, dose: 12.5 mg/kg/injection, schedule: Q01DX Z (sc), vehicle: steriod suspending solution) 96 % of control; under setting [6], 27 % of control; (endpoint: mean tumor weight, dose: 25.0 mg/kg/injection, schedule: Q01DX Z (sc), vehicle: steriod suspending solution) 73 % of control; under setting [7], 96 % of control; (endpoint: mean tumor weight, dose: 25.0 mg/kg/injection, schedule: Q03DX004 (sc), vehicle: steriod suspending solution) 65 % of control; under setting [8], 9 % of control. The T/C is, setting by setting: (endpoint: mean tumor weight, dose: 50.0 mg/kg/injection, schedule: Q01DX Z (sc), vehicle: steriod suspending solution) 76 % of control; (endpoint: mean tumor weight, dose: 50.0 mg/kg/injection, schedule: Q02DX010 (sc), vehicle: steriod suspending solution) 100 % of control; under setting [9], 17 % of control; under setting [10], 4 % of control; under setting [11], 108 % of control; under setting [12], 2 % of control.

For `NCCCCCCNCCCCCCN`, the T/C (endpoint: mean tumor weight, dose: 6.25 mg/kg/injection, schedule: Q01DX010 (ip), vehicle: saline) is 90 % of control; the T/C (endpoint: mean tumor weight, dose: 12.5 mg/kg/injection, schedule: Q01DX010 (ip), vehicle: saline) was 89 % of control; the T/C (endpoint: mean tumor weight, dose: 25.0 mg/kg/injection, schedule: Q01DX010 (ip), vehicle: saline) was 100 % of control and 78 % of control; the T/C under setting [4] was 50 % of control and 70 % of control.

Regarding `C[C@@H]1C[C@H]2[C@@H]3CCC4=CC(=O)C=C[C@]4(C)[C@@]3(F)[C@@H](O)C[C@]2(C)[C@@]1(O)C(=O)CO`, the T/C (endpoint: mean tumor weight (est.), dose: 3.13 mg/kg/injection, schedule: Q01DX016 (sc), vehicle: saline) was 55 % of control; the T/C (endpoint: mean tumor weight (est.), dose: 6.25 mg/kg/injection, schedule: Q01DX016 (sc), vehicle: saline) was 7 % of control; the T/C (endpoint: mean tumor weight, dose: 3.13 mg/kg/injection, schedule: Q01DX005 (sc), vehicle: steriod suspending solution) was 33 % of control; the T/C (endpoint: mean tumor weight, dose: 3.13 mg/kg/injection, schedule: Q01DX010 (sc), vehicle: steriod suspending solution) is 5 % of control; the T/C (endpoint: mean tumor weight, dose: 6.25 mg/kg/injection, schedule: Q01DX005 (sc), vehicle: steriod suspending solution) was 8 % of control; the T/C (endpoint: mean tumor weight, dose: 6.25 mg/kg/injection, schedule: Q02DX010 (sc), vehicle: steriod suspending solution) was 116 % of control. The T/C by setting is: under setting [5], 4 % of control; (endpoint: mean tumor weight, dose: 12.5 mg/kg/injection, schedule: Q02DX010 (sc), vehicle: steriod suspending solution) 98 % of control; under setting [6], 1 % of control; under setting [7], 56 % of control.

For `CC1C[C@@H]2[C@H]([C@@H](O)C[C@@]3(C)[C@H]2CC[C@]3(O)C(=O)CF)[C@@]2(C)CCC(=O)C=C12` (some centres undefined), the T/C was 92 % of control under setting [5]; 54 % of control and 60 % of control under setting [1]; 47 % of control under setting [6]; 57 % of control and 71 % of control under setting [2]; 55 % of control under setting [8]; 58 % of control and 65 % of control under setting [3]. For the same molecule, the T/C is 66 % of control under setting [9]; 100 % of control (endpoint: mean tumor weight, dose: 75.0 mg/kg/injection, schedule: Q02DX010 (sc), vehicle: steriod suspending solution); 14 % of control under setting [10]; 93 % of control under setting [11]; 61 % of control under setting [12]; 118 % of control (endpoint: mean tumor weight, dose: 150.0 mg/kg/injection, schedule: Q01DX010 (sc), vehicle: steriod suspending solution). Further, the T/C by setting is: (endpoint: mean tumor weight, dose: 150.0 mg/kg/injection, schedule: Q02DX010 (sc), vehicle: steriod suspending solution) 95 % of control; (endpoint: mean tumor weight, dose: 200.0 mg/kg/injection, schedule: Q03DX004 (sc), vehicle: steriod suspending solution) 25 % of control.

Take `NC(Cc1c[nH]c2ccc(N(CCCl)CCCl)cc12)C(=O)O` (centres undefined): the T/C is 106 % of control (endpoint: mean tumor weight, dose: 0.25 mg/kg/injection, schedule: Q01DX010 (ip), vehicle: saline); 97 % of control (endpoint: mean tumor weight, dose: 0.5 mg/kg/injection, schedule: Q01DX010 (ip), vehicle: saline); 40 % of control (endpoint: mean tumor weight, dose: 1.0 mg/kg/injection, schedule: Q01DX010 (ip), vehicle: saline); 13 % of control (endpoint: mean tumor weight, dose: 2.0 mg/kg/injection, schedule: Q01DX010 (ip), vehicle: saline).
